Results as given in PubChem BioAssay (NCI).
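Values below derive from 48-hour exposures of cells grown in 96-well plates, with endpoints linearly interpolated between the two concentrations bracketing the appropriate inhibition level. The concentration for 50% growth inhibition is given as GI50. TGI: total growth inhibition.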

Columns and labels:
Experiment in all cases: inhibition of tumour cell growth, NCI panel, 48 h
NCI-H226 lung = tested on: NCI-H226 lung
NCI-H23 lung = tested on: NCI-H23 lung
NCI-H460 lung = tested on: NCI-H460 lung
NCI-H522 lung = tested on: NCI-H522 lung
NCI/ADR-RES ovarian = tested on: NCI/ADR-RES ovarian
OVCAR-3 ovarian = tested on: OVCAR-3 ovarian
OVCAR-4 ovarian = tested on: OVCAR-4 ovarian
OVCAR-5 ovarian = tested on: OVCAR-5 ovarian
OVCAR-8 ovarian = tested on: OVCAR-8 ovarian
PC-3 prostate = tested on: PC-3 prostate
RPMI-8226 leukemia = tested on: RPMI-8226 leukemia
RXF 393 renal = tested on: RXF 393 renal
SF-268 CNS = tested on: SF-268 CNS
SF-295 CNS = tested on: SF-295 CNS
SF-539 CNS = tested on: SF-539 CNS
SK-MEL-2 melanoma = tested on: SK-MEL-2 melanoma
SK-MEL-28 melanoma = tested on: SK-MEL-28 melanoma
SK-MEL-5 melanoma = tested on: SK-MEL-5 melanoma
SK-OV-3 ovarian = tested on: SK-OV-3 ovarian
SN12C renal = tested on: SN12C renal
SNB-19 CNS = tested on: SNB-19 CNS
SNB-75 CNS = tested on: SNB-75 CNS
SR leukemia = tested on: SR leukemia
SW-620 colon = tested on: SW-620 colon
T-47D breast = tested on: T-47D breast
TK-10 renal = tested on: TK-10 renal
U251 CNS = tested on: U251 CNS
UACC-257 melanoma = tested on: UACC-257 melanoma
UACC-62 melanoma = tested on: UACC-62 melanoma
UO-31 renal = tested on: UO-31 renal

CN1CCN(Cc2ccc(C(=O)Nc3cccc(C#Cc4cccc5[nH]nc(N)c45)c3)cc2C(F)(F)F)CC1
TGI (NCI-H226 lung): 2180 nM
GI50 (NCI-H23 lung): 1250 nM
TGI (NCI-H23 lung): 2530 nM
GI50 (NCI-H460 lung): 982 nM
TGI (NCI-H460 lung): 2530 nM
GI50 (NCI-H522 lung): 752 nM
TGI (NCI-H522 lung): 2160 nM
GI50 (NCI/ADR-RES ovarian): 1480 nM
TGI (NCI/ADR-RES ovarian): 3.32 µM
GI50 (OVCAR-3 ovarian): 1000 nM
TGI (OVCAR-3 ovarian): 2510 nM
GI50 (OVCAR-4 ovarian): 889 nM
TGI (OVCAR-4 ovarian): 3.14 µM
GI50 (OVCAR-5 ovarian): 1280 nM
TGI (OVCAR-5 ovarian): 2600 nM
GI50 (OVCAR-8 ovarian): 1160 nM
TGI (OVCAR-8 ovarian): 2380 nM
GI50 (PC-3 prostate): 1000 nM
TGI (PC-3 prostate): 2770 nM
GI50 (RPMI-8226 leukemia): 1120 nM
TGI (RPMI-8226 leukemia): 3.26 µM
GI50 (RXF 393 renal): 571 nM
TGI (RXF 393 renal): 1820 nM
GI50 (SF-268 CNS): 1070 nM
TGI (SF-268 CNS): 2420 nM
GI50 (SF-295 CNS): 1330 nM
TGI (SF-295 CNS): 2630 nM
GI50 (SF-539 CNS): 305 nM
TGI (SF-539 CNS): 1350 nM
GI50 (SK-MEL-2 melanoma): 1530 nM
TGI (SK-MEL-2 melanoma): 3.03 µM
GI50 (SK-MEL-28 melanoma): 1260 nM
TGI (SK-MEL-28 melanoma): 2530 nM
GI50 (SK-MEL-5 melanoma): 1490 nM
TGI (SK-MEL-5 melanoma): 2810 nM
GI50 (SK-OV-3 ovarian): 1940 nM
TGI (SK-OV-3 ovarian): 3.47 µM
GI50 (SN12C renal): 739 nM
TGI (SN12C renal): 2140 nM
GI50 (SNB-19 CNS): 1840 nM
TGI (SNB-19 CNS): 3.25 µM
GI50 (SNB-75 CNS): 1450 nM
TGI (SNB-75 CNS): 3.69 µM
GI50 (SR leukemia): 1100 nM
TGI (SR leukemia): 3.35 µM
GI50 (SW-620 colon): 968 nM
TGI (SW-620 colon): 2370 nM
GI50 (T-47D breast): 1560 nM
TGI (T-47D breast): 3.27 µM
GI50 (TK-10 renal): 1750 nM
TGI (TK-10 renal): 3.17 µM
GI50 (U251 CNS): 1220 nM
TGI (U251 CNS): 2470 nM
GI50 (UACC-257 melanoma): 1360 nM
TGI (UACC-257 melanoma): 2730 nM
GI50 (UACC-62 melanoma): 1140 nM
TGI (UACC-62 melanoma): 2390 nM
GI50 (UO-31 renal): 854 nM
TGI (UO-31 renal): 2090 nM
